In publication PMC7652251, “Anti-aging Effects of Mangosteen Peel Extract and Its Phytochemical Compounds: Antioxidant Activity, Enzyme Inhibition and Molecular Docking Simulation” (Tropical Life Sciences Research, 2020):

Assays:
[1] = target: T1, bovine testes hyaluronidase type I-S (Bos taurus, UniProt F1MTV1); assay: turbidity […] nm, hyaluronic acid with acidic albumin; format: biochemical; settings: phosphate 300 mM pH 5.35, 37°C, 45 min
T1 construct: gene SPAM1; native enzyme from bovine testes, commercial
T1 sequence (F1MTV1 36-553): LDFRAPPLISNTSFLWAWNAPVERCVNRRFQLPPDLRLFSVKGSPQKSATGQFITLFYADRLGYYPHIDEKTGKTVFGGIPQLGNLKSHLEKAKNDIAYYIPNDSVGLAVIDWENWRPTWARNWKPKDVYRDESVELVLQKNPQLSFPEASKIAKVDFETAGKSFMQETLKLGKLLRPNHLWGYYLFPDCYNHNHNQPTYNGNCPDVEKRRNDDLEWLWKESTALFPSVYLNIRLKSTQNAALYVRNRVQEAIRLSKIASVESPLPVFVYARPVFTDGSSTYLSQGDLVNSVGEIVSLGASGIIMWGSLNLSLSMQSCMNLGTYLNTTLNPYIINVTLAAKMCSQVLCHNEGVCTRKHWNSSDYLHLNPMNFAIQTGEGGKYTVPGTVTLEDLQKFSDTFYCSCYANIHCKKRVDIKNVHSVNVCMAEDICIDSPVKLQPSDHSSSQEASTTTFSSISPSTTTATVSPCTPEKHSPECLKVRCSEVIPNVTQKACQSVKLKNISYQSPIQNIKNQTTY

[2] = target: T2, porcine pancreas elastase (Sus scrofa, UniProt P00772); assay: absorbance […] nm, p-nitroanilide release; format: biochemical
T2 construct: gene CELA1; native enzyme from porcine pancreas, commercial

[3] = target: T3, Collagenase from Clostridium histolyticum; assay: absorbance […] nm, FALGPA hydrolysis; format: biochemical, Hathewaya histolytica; settings: N-[3-(2-furyl)acryloyl]-Leu-Gly-Pro-Ala 1 mM, Tricine 50 mM pH 7.5, 37°C, 20 min pre-incubation
T3 construct: gene colG

mushroom tyrosinase = target: T4, mushroom tyrosinase; assay: absorbance […] nm, L-DOPA oxidation; format: biochemical; settings: L-DOPA 1.5 mM stock (20 μL added), potassium phosphate 20 mM pH 6.8, room temperature, 15 min pre-incubation
T4 construct: gene PPO1; PPO3 (2Y9X) is only the docking model

T2 sequence (P00772 27-266): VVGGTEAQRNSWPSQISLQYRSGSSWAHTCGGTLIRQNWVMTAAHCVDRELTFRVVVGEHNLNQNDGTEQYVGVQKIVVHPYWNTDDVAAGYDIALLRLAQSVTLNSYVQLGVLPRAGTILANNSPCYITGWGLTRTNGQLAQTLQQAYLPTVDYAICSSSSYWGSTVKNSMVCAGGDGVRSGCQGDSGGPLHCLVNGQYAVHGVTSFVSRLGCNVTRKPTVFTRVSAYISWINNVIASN

Structure (SMILES) | IC50 [1] | IC50 [2] | IC50 [3] | IC50 (mushroom tyrosinase)
COc1c(O)cc2oc3cc(O)c(CC=C(C)C)c(O)c3c(=O)c2c1CC=C(C)C [Alpha-mangostin] | 39.5 µM | 50 µM | 23.8 µM | 173 µM
CC(C)=CCc1c(O)cc2oc3cc(O)c(O)c(CC=C(C)C)c3c(=O)c2c1O [Gamma-mangostin] | 60.2 µM | 156 µM | 140 µM | 127 µM
CC(C)=CCc1c(O)cc2oc3cc(O)c(O)c(CCC(C)(C)O)c3c(=O)c2c1O [Garcinone C] | 180 µM | 49.1 µM | 79.2 µM | 159 µM
COc1c(O)cc2oc3cc(O)c(CC=C(C)C)c(O)c3c(=O)c2c1CCC(C)(C)O [Garcinone D] | 204 µM | 49.8 µM | 159 µM | 252 µM
